pIC50, pKi: −log10 of the molar value.

In general, pKi refers to the negative decadic logarithm of the Ki, by convention in mol/L. One may read the pIC50 as the IC50 on a negative log10 scale, so that one unit is a factor of ten. As usually defined, the logD is lipophilicity at a set pH, counting ionised and neutral species. One may read the solubility as the dissolved amount per volume that the medium holds.

Series [1] addresses Voltage-gated inwardly rectifying potassium channel KCNH2 (Homo sapiens, UniProt Q12809). The series is described as follows: Inhibition of human ERG.
Series [2] deals with T1, Adenosine receptor A2a (Homo sapiens, UniProt P29274). The series is described as follows: Activity against human A2AR assessed as inhibition of cAMP accumulation by cAMP functional assay. Background: Cyclic AMP is a second messenger, typically raised through Gs and lowered through Gi signalling.
T1 sequence (P29274 whole entry): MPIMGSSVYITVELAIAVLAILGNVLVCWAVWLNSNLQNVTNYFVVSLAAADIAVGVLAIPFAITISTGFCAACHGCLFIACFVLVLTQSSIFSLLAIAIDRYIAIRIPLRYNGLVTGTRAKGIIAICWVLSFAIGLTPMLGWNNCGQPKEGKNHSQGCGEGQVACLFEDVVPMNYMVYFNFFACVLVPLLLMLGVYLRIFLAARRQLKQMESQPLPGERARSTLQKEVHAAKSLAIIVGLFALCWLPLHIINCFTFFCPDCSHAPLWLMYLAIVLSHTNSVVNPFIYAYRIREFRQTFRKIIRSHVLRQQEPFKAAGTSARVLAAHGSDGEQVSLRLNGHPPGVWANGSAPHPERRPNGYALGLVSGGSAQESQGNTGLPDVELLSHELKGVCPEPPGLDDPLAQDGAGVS
Series [3] relates to Mus musculus. The series is described as follows: Reduction in lipid excursion in mouse at 3 mg/kg, po administered as single dose measured after 18 hrs by lipid tolerance test relative to control. On the set-up: scale not given: the % may be the effect or the level left. Type of series: functional.
Series [4] addresses T2, Diacylglycerol O-acyltransferase 1 (Homo sapiens, UniProt O75907).
T2 sequence (O75907 whole entry): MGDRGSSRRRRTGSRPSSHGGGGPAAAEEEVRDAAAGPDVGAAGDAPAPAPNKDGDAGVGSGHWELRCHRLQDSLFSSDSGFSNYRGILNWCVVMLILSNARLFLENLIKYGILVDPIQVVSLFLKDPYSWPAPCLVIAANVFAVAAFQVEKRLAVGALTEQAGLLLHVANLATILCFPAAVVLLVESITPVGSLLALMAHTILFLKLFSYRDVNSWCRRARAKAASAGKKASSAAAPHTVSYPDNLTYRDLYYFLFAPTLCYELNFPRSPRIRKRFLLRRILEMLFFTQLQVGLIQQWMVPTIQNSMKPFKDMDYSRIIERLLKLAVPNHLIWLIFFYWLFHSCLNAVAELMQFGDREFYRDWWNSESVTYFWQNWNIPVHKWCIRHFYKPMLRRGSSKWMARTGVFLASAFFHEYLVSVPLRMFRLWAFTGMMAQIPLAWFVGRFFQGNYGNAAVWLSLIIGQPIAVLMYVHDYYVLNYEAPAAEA
Description: Inhibition of human DGAT1

In series [5] the target is T3, Diacylglycerol O-acyltransferase 1 (Mus musculus, UniProt Q9Z2A7).
T3 sequence (Q9Z2A7 whole entry): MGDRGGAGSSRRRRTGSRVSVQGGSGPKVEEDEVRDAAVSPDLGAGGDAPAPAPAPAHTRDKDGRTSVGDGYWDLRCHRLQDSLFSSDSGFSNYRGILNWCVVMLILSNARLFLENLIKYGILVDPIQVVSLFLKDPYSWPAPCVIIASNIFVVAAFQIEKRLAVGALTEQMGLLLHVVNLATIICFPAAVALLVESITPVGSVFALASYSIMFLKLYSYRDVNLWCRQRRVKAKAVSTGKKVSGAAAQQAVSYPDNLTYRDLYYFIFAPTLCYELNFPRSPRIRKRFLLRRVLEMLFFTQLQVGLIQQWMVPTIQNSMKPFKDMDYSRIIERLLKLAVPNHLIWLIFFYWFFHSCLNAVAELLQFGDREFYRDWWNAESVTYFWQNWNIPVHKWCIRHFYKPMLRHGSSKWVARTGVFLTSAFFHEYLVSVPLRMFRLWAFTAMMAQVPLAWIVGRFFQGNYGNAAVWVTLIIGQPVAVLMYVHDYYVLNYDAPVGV
Description: Inhibition of mouse DGAT1

For series [6], the target named is T4, Sterol O-acyltransferase 1 (Homo sapiens, UniProt P35610).
T4 sequence (P35610 whole entry): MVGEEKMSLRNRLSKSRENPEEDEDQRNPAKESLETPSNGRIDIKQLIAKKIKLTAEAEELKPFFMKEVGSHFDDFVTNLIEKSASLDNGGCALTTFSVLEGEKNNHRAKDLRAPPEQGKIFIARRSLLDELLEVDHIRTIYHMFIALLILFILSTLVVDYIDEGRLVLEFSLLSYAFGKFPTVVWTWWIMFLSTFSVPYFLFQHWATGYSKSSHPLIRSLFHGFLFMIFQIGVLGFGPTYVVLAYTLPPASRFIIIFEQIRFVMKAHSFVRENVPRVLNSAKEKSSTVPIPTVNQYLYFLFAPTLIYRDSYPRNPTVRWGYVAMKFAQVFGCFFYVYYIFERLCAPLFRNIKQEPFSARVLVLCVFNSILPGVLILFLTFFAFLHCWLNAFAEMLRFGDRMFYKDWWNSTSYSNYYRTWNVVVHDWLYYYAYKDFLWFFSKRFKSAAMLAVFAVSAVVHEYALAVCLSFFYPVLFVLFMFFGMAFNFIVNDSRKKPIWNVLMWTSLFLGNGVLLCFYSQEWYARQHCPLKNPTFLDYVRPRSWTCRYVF
Description: Inhibition of human ACAT1

Series [7] in a line: Mutagenicity in Salmonella typhimurium […] by Ames test. The class given is toxicity. Particulars: salmonella enterica subsp. enterica serovar typhimurium. Background: In the Ames test, an excess of revertant colonies over the control signals mutagenicity.
A short description of series [8]: Mutagenicity in Salmonella typhimurium TA98 by Ames test. Type of series: toxicity. The conditions noted are these: salmonella enterica subsp. enterica serovar typhimurium.
A short description of series [9]: Mutagenicity in Salmonella typhimurium TA100 by Ames test. Type of series: toxicity. Particulars: salmonella enterica subsp. enterica serovar typhimurium.
The species named for series [10] is Homo sapiens. The series is described as follows: Ratio of IC50 for human ACAT1 to IC50 for human DGAT1.
Series [11] in a line: Distribution coefficient, log D of compound. Type of series: physicochemical. The conditions noted are these: octanol/water.
Series [12] deals with Mus musculus. The series is described as follows: Reduction in lipid excursion in mouse at 10 mg/kg, po QD measured at 18 hrs post dose by lipid tolerance test relative to control. The class given is functional. Also on record: scale not given: the % may be the effect or the level left.
Series [13] has as its target T1, Adenosine receptor A2a. As to the kind of experiment: Activity at human Adenosine A2A receptor. The class given is ADME.
Series [14] can be described thus: Solubility of the compound at pH 7. Type of series: physicochemical. The conditions noted are these: buffer.

Chain of Voltage-gated inwardly rectifying potassium channel KCNH2 (Q12809 whole entry): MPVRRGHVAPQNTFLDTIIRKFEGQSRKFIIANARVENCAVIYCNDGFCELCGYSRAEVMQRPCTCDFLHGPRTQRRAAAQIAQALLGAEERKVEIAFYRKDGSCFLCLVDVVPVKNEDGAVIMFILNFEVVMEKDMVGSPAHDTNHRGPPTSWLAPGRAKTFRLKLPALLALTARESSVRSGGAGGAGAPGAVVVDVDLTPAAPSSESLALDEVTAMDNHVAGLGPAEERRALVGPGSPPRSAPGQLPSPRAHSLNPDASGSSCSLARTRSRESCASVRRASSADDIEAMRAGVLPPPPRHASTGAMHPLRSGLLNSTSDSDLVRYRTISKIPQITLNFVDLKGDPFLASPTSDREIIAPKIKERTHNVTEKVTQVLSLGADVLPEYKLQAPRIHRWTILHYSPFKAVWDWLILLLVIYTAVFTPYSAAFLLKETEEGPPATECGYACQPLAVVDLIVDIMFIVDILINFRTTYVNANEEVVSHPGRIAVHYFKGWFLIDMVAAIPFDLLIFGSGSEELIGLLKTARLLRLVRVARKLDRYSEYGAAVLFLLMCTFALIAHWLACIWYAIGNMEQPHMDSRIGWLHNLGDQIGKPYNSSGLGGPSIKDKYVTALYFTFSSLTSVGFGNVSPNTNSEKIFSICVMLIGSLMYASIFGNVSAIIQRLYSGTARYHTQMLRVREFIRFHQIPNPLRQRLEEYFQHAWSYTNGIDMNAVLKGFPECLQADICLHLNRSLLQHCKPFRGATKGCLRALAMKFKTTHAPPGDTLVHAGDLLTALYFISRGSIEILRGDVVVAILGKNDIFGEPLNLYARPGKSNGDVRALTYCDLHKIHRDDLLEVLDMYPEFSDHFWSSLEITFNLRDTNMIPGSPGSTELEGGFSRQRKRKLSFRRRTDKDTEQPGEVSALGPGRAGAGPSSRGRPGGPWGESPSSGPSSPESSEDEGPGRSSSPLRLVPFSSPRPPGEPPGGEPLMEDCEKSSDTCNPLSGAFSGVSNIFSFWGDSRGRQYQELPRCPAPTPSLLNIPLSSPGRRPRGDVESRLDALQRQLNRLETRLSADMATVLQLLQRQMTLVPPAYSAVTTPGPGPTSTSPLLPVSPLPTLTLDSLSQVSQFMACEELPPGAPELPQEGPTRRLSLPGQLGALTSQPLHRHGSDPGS

In [1], `O=C(O)C[C@H]1CC[C@H](OC2CCN(c3ccc(-c4nc5c(F)cccc5[nH]4)cn3)CC2)CC1` showed a pKi of 4.97. The pIC50 in series [2] is 6.04; in [4] it was 8.10; in [5], 7.67; in series [6], under 5.00. The compound also had an Activity in series [3] of 92%.
Compound `O=C(O)C[C@H]1CC[C@H](OC2CCN(c3ccc(-c4nc5ccccc5[nH]4)cn3)CC2)CC1` showed a pKi in series [1] of 4.59. Moreover, the pIC50 in [2] was under 5.00; in [4], 7.82; in series [5] it was 7.38; in [6], under 5.00. The Activity is on record as 85% in series [3], “Toxic” in series [7], “Toxic” in series [8] and “Toxic” in series [9].
`Oc1ccc(-c2ccc(-c3nc4cc(C(F)(F)F)ccc4[nH]3)cc2)cn1` gave a pKi in [1] of 5.65. The Ratio IC50 in series [10] is over 500. The pIC50 in series [4] is 8.19; in [6], 5.42.
For the compound `O=C(O)C[C@H]1CC[C@H](OC2CCN(c3ccc(-c4nc5c(F)cc(F)cc5[nH]4)cn3)CC2)CC1`, in series [1], the pKi is 5.39. The pIC50 in series [2] is 6.28; in [4], 8.39; in [5] it was 7.96; in series [6] it was under 5.00. The Activity in series [3] was 65%.
Compound `O=C(O)C[C@H]1CC[C@H](OC2CCN(c3ccc(-c4nc5cc(C(F)(F)F)ccc5[nH]4)cn3)CC2)CC1` gave a pKi in series [1] of 5.31. Besides, the pIC50 is 5.74 in series [2], 8.70 in [4], 8.34 in series [5] and under 5.00 in [6]. The compound also gave an Activity in series [3] of 57%.
`CC1(C(=O)O)CCN(c2ccc(-c3ccc(-c4nc5cc(Cl)ccc5[nH]4)cn3)cn2)CC1`: the logD in [11] was 1.45. In addition, the pKi in [1] was 5.32. For the same compound, the Ratio IC50 in series [10] is over 4000. In series [12], this compound came in with an Activity of 96%. The pIC50 in series [4] is 8.60; in [5] it was 7.70; in series [6] it was under 5.00.
As to `N#Cc1ccc2[nH]c(-c3ccc(-c4ccc(O[C@H]5CC[C@@H](CC(=O)O)CC5)nc4)nc3)nc2c1`, in series [1], the pKi was 5.57. Further, the pIC50 in [2] was 6.37; in series [4] it was 8.44; in [5], 7.75; in series [6], under 5.00. Further, in series [3], the Activity was 63%.
In [1], `COc1ccc2[nH]c(-c3ccc(-c4ccc(O[C@H]5CC[C@@H](CC(=O)O)CC5)nc4)nc3)nc2n1` showed a pKi of 4.42. Also, the pIC50 in series [2] was 5.92; in series [4], 7.94; in series [5], 8.01; in series [6], under 5.70. Also, the Activity is listed as 96% in series [3] and “Active” in series [13].
Consider `O=C(O)c1ccc(Oc2ccc(-c3ccc(-c4nc5cc(Cl)ccc5[nH]4)cn3)cn2)cc1`, for which the pH-dependent lipophilicity (logD) in [11] came to 1.49. Further, in [1], the pKi was 5.87. Moreover, in series [14], the solubility was under 1 µM. The pIC50 in series [4] is 8.89; in series [5], 8.36; in [6] it was 5.71.
In the case of `O=C(O)C[C@H]1CC[C@@H](Oc2ccc(-c3ccc(-c4nc5ccccc5[nH]4)cn3)cn2)CC1`, in series [1], the pKi was 4.57. Further, the pIC50 in series [2] was 6.35; in series [4], 8.28; in series [5], 8.28; in series [6] it was under 5.70. The Activity is 92% in [3] and “Active” in series [13].
In series [1], `Cc1ccc2[nH]c(-c3ccc(-c4ccc(O[C@H]5CC[C@@H](CC(=O)O)CC5)nc4)nc3)nc2n1` had a negative logarithm of the Ki (pKi) of under 4.22. Further, the pIC50 in [2] is 6.31; in [4] it was 7.51; in series [6], under 5.00.
In [11], `O=C(O)C1CC1COc1ccc(-c2ccc(-c3nc4cc(Cl)ccc4[nH]3)cn2)cn1` (racemic) showed a logD of 1.19. Further, the pKi in series [1] is 4.72. Also, in series [12], the Activity was 91%. The pIC50 in series [4] was 8.44; in series [5] it was 7.52; in [6], under 5.70.
In series [1], `O=C(O)C[C@H]1CC[C@H](OC2CCN(c3ccc(-c4nc5cc(Cl)ccc5[nH]4)cn3)CC2)CC1` showed a pKi of 5.35. Besides, the pIC50 in series [2] is 6.17; in [4], 8.51; in series [5] it was 7.66; in [6], under 5.00.
The compound `O=C(O)C[C@H]1CC[C@@H](Oc2ccc(-c3ccc(-c4nc5cc(C(F)(F)F)cnc5[nH]4)cn3)cn2)CC1` had a pKi in series [1] of 4.63. The pIC50 was 6.01 in series [2], 8.15 in series [4], 8.02 in series [5] and under 5.70 in series [6]. Also, the Activity in series [3] is 92%; in series [13], “Active”.
In series [1], `O=C(O)C[C@H]1CC[C@@H](Oc2ccc(-c3ccc(-c4nc5cc(F)ccc5[nH]4)cn3)cn2)CC1` showed a pKi of 5.09. In addition, the pIC50 in [2] is 6.38; in [4] it was 8.62; in series [5] it was 8.49; in [6] it was under 5.70. The compound also showed an Activity in series [3] of 109%.
As to `CC1(C)CN(c2ccc(-c3ccc(-c4nc5cc(Cl)ccc5[nH]4)cn3)cn2)CCC1CC(=O)O` (racemic), in [11], the logD is 1.56. This compound had a pKi in series [1] of 5.76. For the same compound, in series [12], the Activity was 66%. Besides, the pIC50 in series [4] was 8.35; in series [5], 7.48; in series [6], under 5.70.
In series [11], `O=C(O)C1CC(Oc2ccc(-c3ccc(-c4nc5cc(Cl)ccc5[nH]4)cn3)cn2)C1` (racemic) had a logD of 1.16. The compound further had a negative logarithm of the Ki (pKi) in series [1] of 4.69. This compound also had an Activity in [12] of 54%. Also, the pIC50 in series [4] was 8.46; in series [5], 7.62; in [6], under 5.70.
Regarding `O=C(O)[C@H]1CC[C@@H](OC2CCN(c3ccc(-c4nc5cc(F)ccc5[nH]4)cn3)CC2)CC1`, the pKi in [2] is under 5.00. In addition, the negative logarithm of the IC50 (pIC50) in [6] was under 5.00.
For the compound `O=C(O)C1CCC2(CCN(c3ccc(-c4nc5cc(C(F)(F)F)ccc5[nH]4)cn3)CC2)OC1` (racemic), the pKi in [2] is under 5.00. The pIC50 in [6] is under 5.00.
In series [11], `O=C(O)C1CCCCC1Nc1ccc(-c2ccc(-c3nc4cc(Cl)ccc4[nH]3)cn2)cn1` (racemic) registered a logD of 1.51. Also, the pKi in series [1] is 5.45. Moreover, the Activity in series [12] is 0%. Also, the results for the pIC50 in series [4], in series [5] and in [6] were 8.38, 7.68 and under 5.00, respectively.
